The target in assay [1] is T1, Tyrosine-protein kinase transforming protein Abl (Abelson murine leukemia virus, UniProt P00521).
T1 sequence (P00521 whole entry): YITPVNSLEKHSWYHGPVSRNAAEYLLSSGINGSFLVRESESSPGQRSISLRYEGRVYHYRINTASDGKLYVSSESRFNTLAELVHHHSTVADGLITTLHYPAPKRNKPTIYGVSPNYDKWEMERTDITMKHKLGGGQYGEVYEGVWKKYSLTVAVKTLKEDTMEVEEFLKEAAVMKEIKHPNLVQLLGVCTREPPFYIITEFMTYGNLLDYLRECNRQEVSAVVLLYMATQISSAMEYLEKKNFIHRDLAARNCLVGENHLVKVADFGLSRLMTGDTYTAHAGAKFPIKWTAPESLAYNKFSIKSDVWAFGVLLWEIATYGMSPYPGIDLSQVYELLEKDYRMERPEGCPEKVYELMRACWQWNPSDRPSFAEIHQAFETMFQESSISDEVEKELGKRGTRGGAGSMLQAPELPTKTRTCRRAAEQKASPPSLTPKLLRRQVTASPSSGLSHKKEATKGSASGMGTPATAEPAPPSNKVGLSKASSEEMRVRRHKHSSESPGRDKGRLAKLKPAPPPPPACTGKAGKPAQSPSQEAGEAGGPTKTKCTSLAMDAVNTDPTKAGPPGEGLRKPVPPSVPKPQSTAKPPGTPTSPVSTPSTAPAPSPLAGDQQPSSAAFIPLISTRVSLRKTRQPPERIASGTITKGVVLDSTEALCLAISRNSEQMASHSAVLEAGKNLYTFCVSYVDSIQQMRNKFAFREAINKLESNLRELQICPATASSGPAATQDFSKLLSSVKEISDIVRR
Description: Inhibition of Abelson murine leukemia virus p60 v-abl

Assay [2] concerns the target T2, Epidermal growth factor receptor (Homo sapiens, UniProt P00533).
Assay [3] deals with Proto-oncogene tyrosine-protein kinase Src (Homo sapiens, UniProt P12931).
Proto-oncogene tyrosine-protein kinase Src, sequence (P12931 2-536 limits assumed): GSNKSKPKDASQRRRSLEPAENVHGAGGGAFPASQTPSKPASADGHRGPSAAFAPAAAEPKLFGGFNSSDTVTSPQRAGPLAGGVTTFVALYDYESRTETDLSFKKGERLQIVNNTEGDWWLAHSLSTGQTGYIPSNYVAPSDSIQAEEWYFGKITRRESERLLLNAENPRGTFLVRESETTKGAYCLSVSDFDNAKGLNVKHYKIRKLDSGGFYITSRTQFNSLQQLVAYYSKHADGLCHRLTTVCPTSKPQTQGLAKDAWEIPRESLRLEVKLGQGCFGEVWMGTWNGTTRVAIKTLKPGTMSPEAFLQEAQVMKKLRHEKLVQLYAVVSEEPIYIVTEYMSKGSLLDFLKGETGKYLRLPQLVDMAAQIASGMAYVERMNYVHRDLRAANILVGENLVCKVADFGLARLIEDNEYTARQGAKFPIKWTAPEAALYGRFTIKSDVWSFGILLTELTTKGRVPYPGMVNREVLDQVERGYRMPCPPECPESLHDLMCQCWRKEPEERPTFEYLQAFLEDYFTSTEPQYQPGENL
Description: Inhibition of p60c-src expressed in chick embryo fibroblast
A short description of assay [4]: Inhibition of p40 tyrosine kinase.
Assay [5] has as its target T2, Epidermal growth factor receptor. Kind of assay: Inhibition of EGFR in human A431 cells at 400 nmol/mg protein in presence of EGF. It is filed as cell-based. Conditions: A-431.
The target is the same in assay [6]. Kind of assay: Inhibition of EGFR in human A431 cells at 400 nmol/mg protein in absence of EGF. Format: cell-based. As to conditions: A-431.

Molecules are shown by their SMILES. Values after ≈ are worked out from the molar mass of the structure shown. Where a SMILES comes first, the peptide text is derived from it. The star is where a group is joined. CH2Cl = ClC*

T2 sequence (P00533 whole entry): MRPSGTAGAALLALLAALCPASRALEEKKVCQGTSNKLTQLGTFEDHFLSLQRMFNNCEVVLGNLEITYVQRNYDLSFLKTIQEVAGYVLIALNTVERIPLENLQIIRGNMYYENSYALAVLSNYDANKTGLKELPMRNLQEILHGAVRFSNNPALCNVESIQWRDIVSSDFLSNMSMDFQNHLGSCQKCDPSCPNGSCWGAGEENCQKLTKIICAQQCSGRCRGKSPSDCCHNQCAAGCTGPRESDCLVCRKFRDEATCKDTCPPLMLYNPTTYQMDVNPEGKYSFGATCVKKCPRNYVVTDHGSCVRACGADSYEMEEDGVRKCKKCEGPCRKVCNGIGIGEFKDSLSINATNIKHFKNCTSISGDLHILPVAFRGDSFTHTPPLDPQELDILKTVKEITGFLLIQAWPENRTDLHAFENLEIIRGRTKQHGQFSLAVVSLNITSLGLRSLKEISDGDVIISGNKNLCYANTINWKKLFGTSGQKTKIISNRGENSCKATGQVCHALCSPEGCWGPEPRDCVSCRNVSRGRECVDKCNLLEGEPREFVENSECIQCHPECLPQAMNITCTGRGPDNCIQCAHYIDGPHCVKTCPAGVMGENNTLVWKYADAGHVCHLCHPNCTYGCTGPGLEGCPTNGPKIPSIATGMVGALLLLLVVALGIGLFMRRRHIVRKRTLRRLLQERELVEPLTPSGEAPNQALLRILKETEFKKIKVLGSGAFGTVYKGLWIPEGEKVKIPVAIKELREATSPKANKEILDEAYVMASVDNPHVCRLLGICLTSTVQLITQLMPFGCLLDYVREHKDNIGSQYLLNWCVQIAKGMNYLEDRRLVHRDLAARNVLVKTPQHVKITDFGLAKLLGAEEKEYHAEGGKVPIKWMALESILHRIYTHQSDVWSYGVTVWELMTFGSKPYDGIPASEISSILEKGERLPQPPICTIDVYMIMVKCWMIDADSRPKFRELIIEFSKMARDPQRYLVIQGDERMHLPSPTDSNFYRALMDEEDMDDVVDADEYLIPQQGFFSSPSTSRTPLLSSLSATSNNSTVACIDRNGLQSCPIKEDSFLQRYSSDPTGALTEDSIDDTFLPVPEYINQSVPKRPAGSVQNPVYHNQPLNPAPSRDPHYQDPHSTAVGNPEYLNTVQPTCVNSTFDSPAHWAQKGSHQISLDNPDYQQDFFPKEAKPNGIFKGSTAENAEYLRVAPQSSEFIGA

Take `CC(C)(C)OC(=O)NCCNC(=O)c1ccc(S(=O)(=O)Oc2ccc(/C=C/[N+](=O)[O-])cc2)cc1`: the IC50 is 100 µM in assay [1] and 1 µM in assay [2]. With `COc1cc(/C=C/[N+](=O)[O-])ccc1OS(=O)(=O)c1ccc(C(=O)O)cc1`, the IC50 is 40 µM in assay [1] and 3 µM in assay [2].

As for `Nc1nc2c(ncn2[C@@H]2O[C@H](COP(=O)(O)OP(=O)(O)OP(=O)(O)OP(=O)(O)OC[C@H]3O[C@@H](n4cnc5c(=O)[nH]c(N)nc54)[C@H](O)[C@@H]3O)[C@@H](O)[C@H]2O)c(=O)[nH]1`, the IC50 in assay [3] is more than 100 µM.

As to `O=C(O)c1ccc(S(=O)(=O)Oc2ccc(/C=C/[N+](=O)[O-])cc2)cc1O`, the IC50 is 30 µM in assay [1] and 0.05 µM in assay [2]. `COc1cc(/C=C/[N+](=O)[O-])ccc1OS(=O)(=O)c1ccc(C(=O)OC[C@H]2O[C@@H](n3cnc4c(N)ncnc43)[C@H](O)[C@@H]2O)cc1` registered an IC50 in assay [1] of 100 µM.

The molecule `C[C@H](NC(=O)c1ccc(S(=O)(=O)Oc2ccc(/C=C/[N+](=O)[O-])cc2)cc1)C(=O)N[C@@H](C)C(=O)OC(C)(C)C` yielded an IC50 in assay [1] of 100 µM. For `NCCNC(=O)c1ccc(S(=O)(=O)Oc2ccc(/C=C/[N+](=O)[O-])cc2)cc1`, the IC50 in assay [1] is more than 5 µM; in assay [2], 5 µM. Regarding `C[C@H](NC(=O)c1ccc(S(=O)(=O)Oc2ccc(/C=C/[N+](=O)[O-])cc2)cc1)C(=O)N[C@@H](C)C(=O)NCCN`, the IC50 in assay [1] and in assay [2] was 20 µM each time.

Molecule `COc1ccc(NP(=O)(O)OP(=O)(O)OP(=O)(O)OC[C@H]2O[C@@H](n3cnc4c(N)ncnc43)[C@H](O)[C@@H]2O)cc1` gave an IC50 in assay [1] of 90 µM. `Cc1ccc([C@@H]2CC(=O)c3c(O)cc(O)cc3O2)cc1` came in with an IC50 in assay [4] of 3 ×10¹ ug/ml. The molecule `Nc1ncnc2c1ncn2[C@@H]1O[C@H](COP(=O)(O)OP(=O)(O)OP(=O)(O)OP(=O)(O)O)[C@@H](O)[C@H]1O` displayed an IC50 in assay [3] of 9 µM. `CC(C)NC(=O)c1ccc(S(=O)(=O)Oc2ccc(/C=C/[N+](=O)[O-])cc2)cc1`: the IC50 in assay [1] was more than 100 µM; in assay [2] it was 1 µM.

As for `Nc1ncnc2c1ncn2[C@@H]1O[C@H](COC(=O)c2ccc(S(=O)(=O)Oc3ccc(/C=C/[N+](=O)[O-])cc3)cc2)[C@@H](O)[C@H]1O`, in assay [1], the IC50 is more than 100 µM. The same measure, in the same setting: as for `CS(=O)(=O)c1ccc(C(=O)OC[C@H]2O[C@@H](n3cnc4c(N)ncnc43)[C@H](O)[C@@H]2O)cc1`, the figure is 60 µM.

Regarding `COC(=O)c1ccc(S(=O)(=O)Oc2ccc(/C=C/[N+](=O)[O-])cc2)cc1O`, the IC50 in assay [1] is more than 100 µM; in assay [2] it was 2 µM. The molecule `O=C(O)c1ccc(S(=O)(=O)Oc2ccc(/C=C/[N+](=O)[O-])cc2)cc1` had an IC50 in assay [1] of 100 µM.

Take `CCCCNC(=O)c1ccc(S(=O)(=O)Oc2ccc(/C=C/[N+](=O)[O-])cc2)cc1`: the figures for the IC50 in assay [1] and in assay [2] were more than 100 µM and 5 µM, respectively. Taken in the same sequence, the figures for `COC(=O)c1ccc(S(=O)(=O)Oc2ccc(/C=C/[N+](=O)[O-])cc2)cc1` were more than 100 µM and 2 µM. Taken in the same sequence, the figures for `O=C(O)c1ccc(S(=O)(=O)Oc2ccc(/C=C/[N+](=O)[O-])cc2)c(O)c1` were 100 µM and 0.3 µM. Regarding `CC(C)C[C@H](N)C(=O)CCl`, the inhibition in assay [5] stood at 0%; in assay [6], 16%. For `CC(C)C[C@H](NC(=O)OC(C)(C)C)C(=O)CBr`, in that order: 69% and 65%. For `CC(C)C[C@H](NC(=O)OCc1ccccc1)C(=O)C=[N+]=[N-]`, the inhibition in assay [5] came to 18%; in assay [6], 15%. Taken in the same sequence, the figures for `C[C@H](NC(=O)OCc1ccccc1)C(=O)CCl` were 44% and 71%. As for `O=C(CCl)[C@H](Cc1c[nH]c2ccccc12)NOCc1ccccc1`, the inhibition in assay [5] amounted to 10%; in assay [6], 6%.

On to `O=C(CCl)[C@H](Cc1ccccc1)NOCc1ccccc1`, for which the inhibition in assay [5] is 15%; in assay [6] it was 21%. Taken in the same sequence, the figures for `CC(=O)N[C@@H](C)C(=O)N[C@@H](C)C(=O)N[C@@H](Cc1ccccc1)C(=O)N[C@H](C(=O)CCl)[C@@H](C)O` (Ac-AAFT-CH2Cl) were 10% and 4%.

On to `CC(=O)N[C@@H](Cc1ccccc1)C(=O)NCC(=O)N[C@@H](C)C(=O)N[C@@H](CC(C)C)C(=O)CCl` (Ac-FGAL-CH2Cl), for which the inhibition in assay [5] was found to be 29%; in assay [6] it was 59%.

Consider `CC(=O)NCC(=O)NCC(=O)N[C@@H](C)C(=O)N[C@@H](Cc1ccccc1)C(=O)CCl` (Ac-GGAF-CH2Cl), for which the inhibition in assay [5] came to 0%; in assay [6], 5%. As to `O=C1c2c(O)cc(O)cc2O[C@H](c2ccc(O)c(O)c2)[C@H]1O` [(+)-TAXIFOLIN], the IC50 in assay [4] was determined as 3 ×10² ug/ml. `Nc1ncnc2c1ncn2[C@@H]1O[C@H](COP(=O)(O)O)[C@@H](O)[C@H]1O` [ADENOSINE PHOSPHATE] yielded an IC50 in assay [3] of 0.1 µM.

`O=C(O)/C=C/c1ccc(O)cc1` [COUMARIC ACID] displayed an IC50 in assay [4] of more than 300 µg/mL. `Nc1ncnc2c1ncn2[C@@H]1O[C@H](COP(=O)(O)OP(=O)(O)OP(=O)(O)OP(=O)(O)OC[C@H]2O[C@@H](n3cnc4c(N)ncnc43)[C@H](O)[C@@H]2O)[C@@H](O)[C@H]1O` [DIADENOSINE TETRAPHOSPHATE]: the IC50 in assay [3] was found to be 46 µM.

`COc1cc(/C=C/C(=O)O)ccc1O` [FERULATE] yielded an IC50 in assay [4] of more than 300 µg/mL. Still for that read-out and setting: as for `O=C1c2ccc(O)cc2O[C@H](c2ccc(O)c(O)c2)[C@H]1O` [FUSTIN], the figure is more than 5 ×10² ug/ml; as for `O=C1C[C@@H](c2ccc(O)cc2)Oc2cc(O)cc(O)c21` [NARINGENIN], 8 ×10¹ ug/ml; as for `Oc1cc(O)cc(/C=C/c2ccc(O)c(O)c2)c1` [PICEATANNOL], 4 µg/mL (≈ 16.4 µM). Same read-out and setting: as for `O=C1C[C@@H](c2ccccc2)Oc2cc(O)cc(O)c21` [PINOCEMBRIN], the figure is more than 5 ×10² ug/ml.

Source of the values: ChEMBL document CHEMBL1150213, “Protein-tyrosine kinase inhibition: mechanism-based discovery of antitumor agents” (J Nat Prod, 1992).
